According to US12338256B2, “Aza-tetracyclic oxazepine compounds and uses thereof” (Genentech, Inc., priority 2022, dated 2025):
pIC50: −log10 of the molar value.

What was measured:
Type in all cases: cell-based
[1] = test system: AsPC-1 (homozygous mutant KRAS G12D human pancreatic cell line); assay: KRAS 3D-Cell Proliferation Assay, AsPC-1 (Example 503); conditions: Homo sapiens, ASPC1, 168 h, AsPC-1 3D culture, 7 days, CellTiter-Glo 3D; read-out: Prolif AsPC-1 3D ATP IC50
Outline: (§1)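 Luminescent ATP readout (CellTiter-Glo 3D, with mechanical mixing) measures growth of cells cultured in 3D after a 7-day compound exposure at 37° C. Percent inhibition is referenced to vehicle (DMSO) and 1 μM staurosporine controls, and IC50 comes from a four-parameter Hill fit.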

[2] = test system: PC-9 (KRAS wild type human lung adenocarcinoma cell line); assay: KRAS 3D-Cell Proliferation Assay, PC-9 (Example 503); conditions: 168 h, PC-9 3D culture, 7 days, CellTiter-Glo 3D, read-out: Prolif PC9 3D ATP IC50
Experimental: Example 503: KRAS 3D-Cell Proliferation Assays. Cellular potencies of compounds are assessed by evaluating inhibition of proliferation in 3D cultures of homozygous mutant KRAS G12D human pancreatic cell lines (AsPC-1 and HPAC) as compared to a KRAS wild type human lung adenocarcinoma cell line (PC-9 and/or H1975). Cells are seeded into 384-well black round-bottom, ultra-low attachment assay plates in 50 uL cell growth medium (RPMI-1640 with 10% fetal bovine serum and 2 mM L-glutamine). After overnight incubation at 37° C. and 5% CO2, compounds solubilized in DMSO are added as dilution series to the wells in a total volume of 150 nL (0.3% DMSO final). The cells are incubated for 7 days at 37° C. and 5% CO2. Cell proliferation is quantitated by addition of 40 uL/well of CellTiter-GloÒ 3D (Promega), and the well contents are mixed 20× at high speed using liquid handling automation workstation (Bravo with 384-well head) and centrifuged at 1500 rpm for 2 minutes to eliminate bubbles. This reagent in combination with mechanical disruption releases the cellular ATP to promote activity in a luciferase-based enzyme/substrate chemiluminescent detection system. After a 30-minute incubation under ambient conditions with shaking and an additional 10 minutes without shaking, the luminescence is read on a plate reader (e.g., EnVision [PerkinElmer]). The results are normalized to percent inhibition based on the following control samples: DMSO (0% inhibition) and 1 μM staurosporine (100% inhibition). The normalized luminescence results are plotted against compound concentration, and the data are fit to a 4-parameter Hill equation to determine the IC50 values.

[3] = test system: HPAC (homozygous mutant KRAS G12D human pancreatic cell line); assay: KRAS 3D-Cell Proliferation Assay, HPAC (Example 503); conditions: Homo sapiens, HPAC, 168 h, HPAC 3D culture, 7 days, CellTiter-Glo 3D; read-out: Prolif HPAC 3D ATP IC50
Outline: as §1

[4] = test system: H1975 (KRAS wild type human lung adenocarcinoma cell line); assay: KRAS 3D-Cell Proliferation Assay, H1975 (Example 503); conditions: Homo sapiens, NCI-H1975, 168 h, H1975 3D culture, 7 days, CellTiter-Glo 3D; read-out: Prolif H1975 3D ATP IC50
Outline: as §1

Row | Compound | pIC50 [1] | pIC50 [2] | pIC50 [3] | pIC50 [4]
1 | C[C@@H]1Oc2nc(-c3cc(N)c(F)c(F)c3C(F)(F)F)c(F)c3nc(OC[C@@]45CCCN4C[C@H](F)C5)nc(c23)N2C[C@H]3CC[C@H](N3)[C@@H]12 [Compound 15, 2,3-difluoro-5-((5S,5aS,6S,9R)-1-fluoro-12-(((2R,7aS)-2-fluorotetrahydro-1H-pyrrolizin-7a(5H)-yl)methoxy)-5-methyl-5a,6,7,8,9,10-hexahydro-5H-4-oxa-3,10a,11,13,14-pentaaza-6,9-methanonaphtho[1,8-ab]heptalen-2-yl)-4-(trifluoromethyl)aniline] | 8.80 | 5.54 | – | –
2 | CN1CCC2COc3nc(-c4cc(O)cc5cccc(F)c45)c(F)c4nc(OC[C@@]56CCCN5C[C@H](F)C6)nc(c34)N2CC1 (single isomer, unassigned) [Compound 49] | ≤ 4.70 | 5.63 | – | –
3 | Fc1c(-c2cccc3cccc(Cl)c23)nc2c3c(nc(OC[C@@]45CCCN4C[C@H](F)C5)nc13)N1C[C@H]3CC[C@H](N3)[C@H]1CO2 [Compound 2, (5aS,6S,9R)-2-(8-chloronaphthalen-1-yl)-1-fluoro-12-(((2R,7aS)-2-fluorotetrahydro-1H-pyrrolizin-7a(5H)-yl)methoxy)-5a,6,7,9,10-hexahydro-5H-4-oxa-3,10a,11,13,14-pentaaza-6,9-methanonaphtho[1,8-ab]heptalene] | 6.25 | 5.33 | – | –
4 | Cc1cc(N)nc(-c2nc3c4c(nc(OC[C@@]56CCCN5C[C@H](F)C6)nc4c2F)N2C[C@H]4CC[C@H](N4)[C@H]2CO3)c1C(F)(F)F [Compound 44, 6-((5aS,6S,9R)-1-fluoro-12-(((2R,7aS)-2-fluorotetrahydro-1H-pyrrolizin-7a(5H)-yl)methoxy)-5a,6,7,8,9,10-hexahydro-5H-4-oxa-3,10a,11,13,14-pentaaza-6,9-methanonaphtho[1,8-ab]heptalen-2-yl)-4-methyl-5-(trifluoromethyl)pyridin-2-amine] | 6.47 | ≤ 4.70 | – | –
5 | Cc1ccnc(-c2nc3c4c(nc(OC[C@]56CCN5CC(F)(F)C6)nc4c2F)N2C[C@H]4CC[C@H](N4)[C@H]2[C@H](C)O3)c1C(F)(F)F [Compound 88, (5S,5aS,6S,9R)-12-(((R)-3,3-Difluoro-1-azabicyclo[3.2.0]heptan-5-yl)methoxy)-1-fluoro-5-methyl-2-(4-methyl-3-(trifluoromethyl)pyridin-2-yl)-5a,6,7,8,9,10-hexahydro-5H-4-oxa-3,10a,11,13,14-pentaaza-6,9-methanonaphtho[1,8-ab]heptalene] | ≤ 4.70 | ≤ 4.70 | – | –
6 | Cc1cc(N)c(F)c(-c2nc3c4c(nc(OC[C@@]56CCN5CC(F)(F)C6)nc4c2F)N2C[C@H]4CC[C@H](N4)[C@H]2[C@H](C)O3)c1C(F)(F)F [Compound 92, 3-((5S,5aS,6S,9R)-12-(((S)-3,3-Difluoro-1-azabicyclo[3.2.0]heptan-5-yl)methoxy)-1-fluoro-5-methyl-5a,6,7,8,9,10-hexahydro-5H-4-oxa-3,10a,11,13,14-pentaaza-6,9-methanonaphtho[1,8-ab]heptalen-2-yl)-2-fluoro-5-methyl-4-(trifluoromethyl)aniline] | – | 4.95 | – | –
7 | C[C@@H]1Oc2nc(-c3cccc(N)c3F)c(F)c3nc(OC[C@@]45CCCN4C[C@H](F)C5)nc(c23)N2C[C@H]3CC[C@H](N3)[C@@H]12 [Compound 12, 2-fluoro-3-((5S,5aS,6S,9R)-1-fluoro-12-(((2R,7aS)-2-fluorotetrahydro-1H-pyrrolizin-7a(5H)-yl)methoxy)-5-methyl-5a,6,7,8,9,10-hexahydro-5H-4-oxa-3,10a,11,13,14-pentaaza-6,9-methanonaphtho[1,8-ab]heptalen-2-yl)aniline] | 4.78 | 4.86 | – | –
8 | C[C@@H]1Oc2nc(-c3cccc4cccc(Cl)c34)c(F)c3nc(OCC45CCN4CC(F)(F)C5)nc(c23)N2C[C@H]3CC[C@H](N3)[C@@H]12 (single isomer, unassigned) [Compound 21] | – | 5.11 | 6.16 | 4.91
9 | Cc1cc(N)nc(-c2nc3c4c(nc(OC[C@]56CCN5CC(F)(F)C6)nc4c2F)N2C[C@H]4CC[C@H](N4)[C@H]2[C@H](C)O3)c1C(F)(F)F (single isomer, unassigned) [Compound 45] | – | ≤ 4.70 | – | –
10 | C[C@@H]1Oc2nc(-c3cc(N)c(F)c(Cl)c3C(F)(F)F)c(F)c3nc(OC[C@@]45CCCN4C[C@H](F)C5)nc(c23)N2C[C@H]3CC[C@H](N3)[C@@H]12 [Compound 104, 3-Chloro-2-fluoro-5-((5S,5aS,6S,9R)-1-fluoro-12-(((2R,7aS)-2-fluorotetrahydro-1H-pyrrolizin-7a(5H)-yl)methoxy)-5-methyl-5a,6,7,8,9,10-hexahydro-5H-4-oxa-3,10a,11,13,14-pentaaza-6,9-methanonaphtho[1,8-ab]heptalen-2-yl)-4-(trifluoromethyl)aniline] | 8.85 | – | 9.19 | 6.66
11 | C[C@@H]1Oc2nc(-c3cc(N)c(F)cc3C(F)(F)F)c(F)c3nc(OC[C@@H]4CC[C@H]5COCCN54)nc(c23)N2C[C@H]3CC[C@H](N3)[C@@H]12 [Compound 70, 2-Fluoro-5-((5S,5aS,6S,9R)-1-fluoro-12-(((6S,8aS)-hexahydro-1H-pyrrolo[2,1-c][1,4]oxazin-6-yl)methoxy)-5-methyl-5a,6,7,8,9,10-hexahydro-5H-4-oxa-3,10a,11,13,14-pentaaza-6,9-methanonaphtho[1,8-ab]heptalen-2-yl)-4-(trifluoromethyl)aniline] | 7.36 | – | 7.96 | 5.77
12 | Cc1nc(N)cc(-c2nc3c4c(nc(OC[C@@H]5CC[C@H]6COCCN65)nc4c2F)N2C[C@H]4CC[C@H](N4)[C@H]2[C@H](C)O3)c1C(F)(F)F [Compound 112, 4-((5S,5aS,6S,9R)-1-fluoro-12-(((6S,8aS)-hexahydro-1H-pyrrolo[2,1-c][1,4]oxazin-6-yl)methoxy)-5-methyl-5a,6,7,8,9,10-hexahydro-5H-4-oxa-3,10a,11,13,14-pentaaza-6,9-methanonaphtho[1,8-ab]heptalen-2-yl)-6-methyl-5-(trifluoromethyl)pyridin-2-amine] | 7.50 | – | 8.12 | 5.83
13 | Cc1nc(N)c(F)c(-c2nc3c4c(nc(OC[C@@]56CCCN5CC5(CC5(F)F)C6)nc4c2F)N2C[C@H]4CC[C@H](N4)[C@H]2[C@H](C(F)(F)F)O3)c1C(F)(F)F (stereo partly drawn) [Compound 257, 4-((5R,5aS,6S,9R)-12-(((7a′S)-2,2-Difluorodihydro-1′H,3′H-spiro[cyclopropane-1,2′-pyrrolizin]-7a′(5′H)-yl)methoxy)-1-fluoro-5-(trifluoromethyl)-5a,6,7,8,9,10-hexahydro-5H-4-oxa-3,10a,11,13,14-pentaaza[6,9]methanonaphtho[1,8-ab]heptalen-2-yl)-3-fluoro-6-methyl-5-(trifluoromethyl)pyridin-2-amine] | 8.10 | – | 8.08 | 5.30
14 | Cc1c(F)c(N)cc(-c2nc3c4c(nc(OCC56CCN(C)C5COC6)nc4c2F)N2C[C@H]4CC[C@H](N4)[C@H]2[C@H](C)O3)c1C(F)(F)F (single isomer, unassigned) [258 (isomer 1)] | 8.09 | – | 8.30 | 5.81
15 | Cc1cc(N)cc(-c2nc3c4c(nc(OC[C@]56CCCN5CC(F)(F)C6)nc4c2F)N2C[C@H]4CC[C@H](N4)[C@H]2[C@H](C)O3)c1C(F)(F)F [Compound 69, 3-((5S,5aS,6S,9R)-12-(((R)-2,2-Difluorotetrahydro-1H-pyrrolizin-7a(5H)-yl)methoxy)-1-fluoro-5-methyl-5a,6,7,8,9,10-hexahydro-5H-4-oxa-3,10a,11,13,14-pentaaza-6,9-methanonaphtho[1,8-ab]heptalen-2-yl)-5-methyl-4-(trifluoromethyl)aniline] | 7.67 | – | 8.19 | 5.89
16 | Cc1c(F)c(N)cc(-c2nc3c4c(nc(OC[C@@]56CCCN5C[C@H](F)C6)nc4c2F)N2C[C@H]4CC[C@H](N4)[C@@H]2C(C)O3)c1C(F)(F)F (single isomer, unassigned) [237 (isomer 2)] | 6.70 | – | 8.44 | 5.98
